Measurements published in US9540691B2, “Assays and methods for selecting a treatment regimen for a subject with depression” (THE GENERAL HOSPITAL CORPORATION, priority 2011, dated 2017).
Read-outs that look alike come from different tables or passages of the source.

Tested on: patients with major depressive disorder (MDD) resistant to treatment with SSRIs
Method: Documentation of the presence of any side effect or adverse event is completed at every visit using the SAFTEE-SI. Subjects can contact a clinician at any time between visits concerning adverse events or worsening of symptoms. Suicidal ideation is assessed at each visit. Subjects who are felt by the study clinician to be at high risk for suicide are discontinued from the study and referred for hospitalization and further treatment if clinically indicated (See Tables 4 & 5 below).
One-way analysis of variance can be used to assess differences in total number of SAFTEE-SI AEs between baseline and endpoint.
The study involved the enrollment of a total of 148 patients with MDD over the course of 12 months across 10 medical centers or hospitals in the United States. […] In accordance with the sequential parallel design, the 60-day, double-blind treatment was divided into two phases of 30 days each, with assessments performed every 10 days. […] For those randomly assigned to the placebo/placebo sequence, both responders and non-responders to placebo during the first phase remained on placebo during the second phase.

[1] = L-methylfolate 7.5 mg (n = 24) with SSRI
[2] = L-methylfolate 7.5 mg vs placebo
[3] = L-methylfolate 16 mg (n = 30) with SSRI
[4] = L-methylfolate 16 mg vs placebo

CN1c2c(nc(N)[nH]c2=O)NC[C@@H]1CNc1ccc(C(=O)N[C@@H](CCC(=O)O)C(=O)O)cc1 [6(S)-5-MTHF, 6(S)-5-methyltetrahydrofolate] was tested, and the “Cardiovascular side effects, Frequency (%)” value [1] was 0 (0%), the “Gastrointestinal side effects, Frequency (%)” value [1] was 9 (9.8%) and the “Infectious side effects, Frequency (%)” value [1] was 6 (6.4%). For the same compound, the “Miscellaneous side effects, Frequency (%)” value [1] was 1 (1.1%), the “Paychological [sic] side effects, Frequency (%)” value [1] was 2 (2.1%) and the “Sexual side effects, Frequency (%)” value [1] was 0 (0%). For the same compound, the “Sleep side effects, Frequency (%)” value [1] was 3 (3.2%), the “Somatic side effects, Frequency (%)” value [1] was 9 (8.6%) and the “Cardiovascular side effects, NNH” value [2] was “< placebo”. The “Gastrointestinal side effects, NNH” value [2] was “< placebo”, the “Infectious side effects, NNH” value [2] was “< placebo” and the “Miscellaneous side effects, NNH” value [2] was “< placebo”. For the same compound, the “Paychological [sic] side effects, NNH” value [2] was “< placebo”, the “Sexual side effects, NNH” value [2] was “=placebo” and the “Sleep side effects, NNH” value [2] was “< placebo”. For the same compound, the “Somatic side effects, NNH” value [2] was “< placebo”, the “Cardiovascular side effects, Frequency (%)” value [3] was 2 (6.7%) and the “Gastrointestinal side effects, Frequency (%)” value [3] was 3 (10.0%). The “Infectious side effects, Frequency (%)” value [3] was 2 (6.7%), the “Miscellaneous side effects, Frequency (%)” value [3] was 2 (6.7%) and the “Paychological [sic] side effects, Frequency (%)” value [3] was 2 (6.7%). For the same compound, the “Sexual side effects, Frequency (%)” value [3] was 0 (0%), the “Sleep side effects, Frequency (%)” value [3] was 2 (6.7%) and the “Somatic side effects, Frequency (%)” value [3] was 3 (10.0%). For the same compound, the “Cardiovascular side effects, NNH” value [4] was “< placebo”, the “Gastrointestinal side effects, NNH” value [4] was “< placebo” and the “Infectious side effects, NNH” value [4] was “< placebo”. For the same compound, the “Miscellaneous side effects, NNH” value [4] was “< placebo”, the “Paychological [sic] side effects, NNH” value [4] was “< placebo” and the “Sexual side effects, NNH” value [4] was “=placebo”. The “Sleep side effects, NNH” value [4] was “< placebo”, the “Somatic side effects, NNH” value [4] was “< placebo” and the “adverse side effect when administered with an SSRI (in words)” value (Trial 1) was “does not appear to cause any adverse side effect”.
